Results taken from US20260022142A1, “MACROCYCLIC IMMUNOMODULATORS” (Bristol-Myers Squibb Company, priority 2022, published 2026).
pIC50: −log10 of the molar value. Bridge positions count the residues as written; N and C are the ends. Square brackets hold non-standard residues; d marks the D form. Peptide text beside a SMILES is read from it. * marks the point of attachment. ξ: configuration not given here. Phe(4-COOH) = N[C@@H](Cc1ccc(C(=O)O)cc1)C(=O)O; Bip = N[C@@H](Cc1ccc(-c2ccccc2)cc1)C(=O)O; Cha = N[C@@H](CC1CCCCC1)C(=O)O; Cit = NC(=O)NCCC[C@H](N)C(=O)O; Carboxymethyl = O=C(O)C*; Orn = NCCC[C@H](N)C(=O)O; Aun = NCCCCCCCCCCC(=O)O; Dab = NCC[C@H](N)C(=O)O; AEEA = NCCOCCOCC(=O)O; ξV = CC(C)C(N)C(=O)O

Target: T1, PD-1/PD-L1 interaction (PE-labeled human PD-L1-Ig binding to Jurkat cell line over-expressing human PD-1) (Homo sapiens, UniProt Q15116)
T1 construct: expressed in transfected cells; host or cells: Jurkat
T1 sequence (Q15116 25-288): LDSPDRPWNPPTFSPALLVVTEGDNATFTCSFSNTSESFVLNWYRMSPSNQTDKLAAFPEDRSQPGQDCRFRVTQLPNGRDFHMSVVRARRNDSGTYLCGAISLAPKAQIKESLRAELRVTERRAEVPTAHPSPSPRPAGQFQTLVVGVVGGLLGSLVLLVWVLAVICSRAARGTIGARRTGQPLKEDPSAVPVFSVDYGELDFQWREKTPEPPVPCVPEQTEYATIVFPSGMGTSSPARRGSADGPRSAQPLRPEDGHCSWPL
Test: Jurkat-PD-1 Cell Binding High-Content Screening Assay (CBA)
Assay type: cell-based
Conditions: Jurkat cell line over-expressing human PD-1; PE-labeled PD-L1-Ig 20 nM final; read-out: Jurkat hPD1-PDL1 IC50
Procedure, shortened: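 Jurkat cells over-expressing human PD-1 (8×10^3 per well, DMEM/10% FCS) preincubated with compound 2 h at 37° C, then PE-labeled human PD-L1-Ig (20 nM final) added for 1 h. Cells fixed with paraformaldehyde, Hoechst-stained, and bound fluorescence quantified by high-content imaging.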

SMILES	pIC50
CC(C)C[C@@H]1NC(=O)[C@H](Cc2c[nH]c3ccccc23)NC(=O)[C@H](CC(=O)O)NC(=O)[C@H](Cc2ccc(C(=O)O)cc2)NC(=O)[C@H](Cc2ccc(OCC(=O)O)cc2)NC(=O)CSC[C@@H](C(=O)NCCOCCOCC(=O)NCCCCCCCCCCC(=O)O)NC(=O)[C@H](CCCNC(=N)N)NC(=O)[C@H](C(C)C)NC(=O)[C@H](CC2CCCCC2)NC(=O)[C@H](CCN)NC(=O)[C@@H](CC(C)C)NC(=O)[C@H](CCCN)NC(=O)[C@H](Cc2ccc(O)cc2)NC(=O)[C@H](Cc2ccc(-c3ccccc3)cc2)NC1=O [Compound 1242] ({CH2CO}-Y(Carboxymethyl)[Phe(4-COOH)]DWL[Bip]Y[Orn][dL][Dab][Cha]VRC[AEEA][Aun]-OH; thioether N-14)	7.48
CC(C)C[C@H]1NC(=O)[C@H](CCCN)NC(=O)[C@H](Cc2ccc(O)cc2)NC(=O)[C@H](Cc2ccc(-c3ccccc3)cc2)NC(=O)[C@H](C(C)C)NC(=O)[C@H](Cc2c[nH]c3ccccc23)NC(=O)[C@H](CC(=O)O)NC(=O)[C@H](Cc2ccc(C(=O)O)cc2)NC(=O)[C@H](Cc2ccc(OCC(=O)O)cc2)NC(=O)CSC[C@@H](C(=O)NCCOCCOCC(=O)NCCCCCCCCCCC(=O)O)NC(=O)[C@H](CCCNC(N)=O)NC(=O)C(C(C)C)NC(=O)[C@H](CC2CCCCC2)NC(=O)[C@H](CCN)NC1=O (stereo partly drawn) [Compound 1243] ({CH2CO}-Y(Carboxymethyl)[Phe(4-COOH)]DWV[Bip]Y[Orn][dL][Dab][Cha][ξV][Cit]C[AEEA][Aun]-OH; thioether N-14)	7.93

The next lines start with the values.

pIC50	SMILES
7.52	CC(C)C[C@@H]1NC(=O)[C@H](Cc2c[nH]c3ccccc23)NC(=O)[C@H](CC(=O)O)NC(=O)[C@H](Cc2ccc(C(=O)O)cc2)NC(=O)[C@H](Cc2ccc(OCC(=O)O)cc2)NC(=O)CSC[C@@H](C(=O)NCCOCCOCC(=O)NCCCCCCCCCCC(=O)O)NC(=O)[C@H](CCN)NC(=O)[C@H](C(C)C)NC(=O)[C@H](CC2CCCCC2)NC(=O)[C@H](CCN)NC(=O)[C@@H](CC(C)C)NC(=O)[C@H](CCCN)NC(=O)[C@H](Cc2ccc(O)cc2)NC(=O)[C@H](Cc2ccc(-c3ccccc3)cc2)NC1=O [Compound 1239] ({CH2CO}-Y(Carboxymethyl)[Phe(4-COOH)]DWL[Bip]Y[Orn][dL][Dab][Cha]V[Dab]C[AEEA][Aun]-OH; thioether N-14)
7.69	CC(C)C[C@@H]1NC(=O)[C@H](Cc2c[nH]c3ccccc23)NC(=O)[C@H](CC(=O)O)NC(=O)[C@H](Cc2ccc(C(=O)O)cc2)NC(=O)[C@H](Cc2ccc(OCC(=O)O)cc2)NC(=O)CSC[C@@H](C(=O)NCCOCCOCC(=O)NCCCCCCCCCCC(=O)O)NC(=O)[C@H](CCCN)NC(=O)[C@H](C(C)C)NC(=O)[C@H](CC2CCCCC2)NC(=O)[C@H](CCN)NC(=O)[C@@H](CC(C)C)NC(=O)[C@H](CCCN)NC(=O)[C@H](Cc2ccc(O)cc2)NC(=O)[C@H](Cc2ccc(-c3ccccc3)cc2)NC1=O [Compound 1240] ({CH2CO}-Y(Carboxymethyl)[Phe(4-COOH)]DWL[Bip]Y[Orn][dL][Dab][Cha]V[Orn]C[AEEA][Aun]-OH; thioether N-14)
7.74	CC(C)C[C@@H]1NC(=O)[C@H](Cc2c[nH]c3ccccc23)NC(=O)[C@H](CC(=O)O)NC(=O)[C@H](Cc2ccc(C(=O)O)cc2)NC(=O)[C@H](Cc2ccc(OCC(=O)O)cc2)NC(=O)CSC[C@@H](C(=O)NCCOCCOCC(=O)NCCCCCCCCCCC(=O)O)NC(=O)[C@H](CCCCN)NC(=O)[C@H](C(C)C)NC(=O)[C@H](CC2CCCCC2)NC(=O)[C@H](CCN)NC(=O)[C@@H](CC(C)C)NC(=O)[C@H](CCCN)NC(=O)[C@H](Cc2ccc(O)cc2)NC(=O)[C@H](Cc2ccc(-c3ccccc3)cc2)NC1=O [Compound 1241] ({CH2CO}-Y(Carboxymethyl)[Phe(4-COOH)]DWL[Bip]Y[Orn][dL][Dab][Cha]VKC[AEEA][Aun]-OH; thioether N-14)
